Data from ChEMBL document CHEMBL3885881, “DrugMatrix”.

Species on record: Rattus norvegicus
Experiment: DrugMatrix - Regimen: Daily Repeat
Type: toxicity, organism-based, Sprague-Dawley
Set-up: regimen Daily Repeat, gender Male, age 6-8 weeks
Conditions: in vivo, po, 5 mg/kg, route oral GAVAGE, dose level High, vehicle .5 % CMC; for ABSOLUTE BASOPHIL / ABSOLUTE EOSINOPHIL / ABSOLUTE LYMPHOCYTE / ABSOLUTE MONOCYTE / ABSOLUTE SEGMENTED NEUTROPHIL / BASOPHIL / EOSINOPHIL / ERYTHROCYTE COUNT / HEMATOCRIT / HEMOGLOBIN / LEUKOCYTE COUNT / LYMPHOCYTE / MEAN CORPUSCULAR HEMOGLOBIN / MEAN CORPUSCULAR HEMOGLOBIN CONCENTRATION / MEAN CORPUSCULAR VOLUME / MONOCYTE / NEUTROPHIL / NUCLEATED RED BLOOD CELLS / PLATELET COUNT: tissue Blood; for ALANINE AMINOTRANSFERASE / ALBUMIN / ALKALINE PHOSPHATASE / ASPARTATE AMINOTRANSFERASE / BLOOD UREA NITROGEN / CARBON DIOXIDE / CHLORIDE / CHOLESTEROL / CREATINE PHOSPHOKINASE / CREATININE / GLUCOSE / LACTATE DEHYDROGENASE / LIPASE / PHOSPHORUS / POTASSIUM / SODIUM / TOTAL BILIRUBIN / TOTAL PROTEIN / URIC ACID: tissue Plasma

Nc1c(CC(=O)O)cccc1C(=O)c1ccc(Br)cc1 [BROMFENAC]
ABSOLUTE BASOPHIL (72 h, time 3 day): 0 CELLS/uL
ABSOLUTE EOSINOPHIL (72 h, time 3 day): 0 CELLS/uL
ABSOLUTE LYMPHOCYTE (72 h, time 3 day): 5201.4 CELLS/uL
ABSOLUTE MONOCYTE (72 h, time 3 day): 116 CELLS/uL
ABSOLUTE SEGMENTED NEUTROPHIL (72 h, time 3 day): 1982.6 CELLS/uL
BASOPHIL (72 h, time 3 day): 0%
EOSINOPHIL (72 h, time 3 day): 0%
ERYTHROCYTE COUNT (72 h, time 3 day): 4.97 x10E6/uL
HEMATOCRIT (72 h, time 3 day): 30.78%
HEMOGLOBIN (72 h, time 3 day): 11.8 G/DL
LEUKOCYTE COUNT (72 h, time 3 day): 7.3 x10E3/uL
LYMPHOCYTE (72 h, time 3 day): 72.6%
MEAN CORPUSCULAR HEMOGLOBIN (72 h, time 3 day): 23.92 pg
MEAN CORPUSCULAR HEMOGLOBIN CONCENTRATION (72 h, time 3 day): 38.52 G/DL
MEAN CORPUSCULAR VOLUME (72 h, time 3 day): 62.06 fL
MONOCYTE (72 h, time 3 day): 1.8%
NEUTROPHIL (72 h, time 3 day): 25.6%
NUCLEATED RED BLOOD CELLS (72 h, time 3 day): 0 /100WBC
PLATELET COUNT (72 h, time 3 day): 593.4 x10E3/uL
ALANINE AMINOTRANSFERASE (72 h, time 3 day): 100 u/L
ALBUMIN (72 h, time 3 day): 3.64 G/DL
ALKALINE PHOSPHATASE (72 h, time 3 day): 337.8 u/L
ASPARTATE AMINOTRANSFERASE (72 h, time 3 day): 193.2 u/L
BLOOD UREA NITROGEN (72 h, time 3 day): 10.2 mg/dL
CARBON DIOXIDE (72 h, time 3 day): 31.2 mmol/L
CHLORIDE (72 h, time 3 day): 103.4 MEQ/L
CHOLESTEROL (72 h, time 3 day): 84.6 mg/dL
CREATINE PHOSPHOKINASE (72 h, time 3 day): 304.4 u/L
CREATININE (72 h, time 3 day): 0.19 mg/dL
GLUCOSE (72 h, time 3 day): 147.4 mg/dL
LACTATE DEHYDROGENASE (72 h, time 3 day): 116.6 u/L
LIPASE (72 h, time 3 day): 8.4 u/L
PHOSPHORUS (72 h, time 3 day): 11.14 mg/dL
POTASSIUM (72 h, time 3 day): 5.44 MEQ/L
SODIUM (72 h, time 3 day): 146.66 MEQ/L
TOTAL BILIRUBIN (72 h, time 3 day): 0.14 mg/dL
TOTAL PROTEIN (72 h, time 3 day): 5.36 G/DL
URIC ACID (72 h, time 3 day): 0.76 mg/dL
ABSOLUTE BASOPHIL (120 h, time 5 day): 0 CELLS/uL
ABSOLUTE EOSINOPHIL (120 h, time 5 day): 23.5 CELLS/uL
ABSOLUTE LYMPHOCYTE (120 h, time 5 day): 8259.25 CELLS/uL
ABSOLUTE MONOCYTE (120 h, time 5 day): 191.75 CELLS/uL
ABSOLUTE SEGMENTED NEUTROPHIL (120 h, time 5 day): 1625.5 CELLS/uL
BASOPHIL (120 h, time 5 day): 0%
EOSINOPHIL (120 h, time 5 day): 0.25%
ERYTHROCYTE COUNT (120 h, time 5 day): 4.46 x10E6/uL
HEMATOCRIT (120 h, time 5 day): 28.57%
HEMOGLOBIN (120 h, time 5 day): 11 G/DL
LEUKOCYTE COUNT (120 h, time 5 day): 10.1 x10E3/uL
LYMPHOCYTE (120 h, time 5 day): 81.75%
MEAN CORPUSCULAR HEMOGLOBIN (120 h, time 5 day): 24.82 pg
MEAN CORPUSCULAR HEMOGLOBIN CONCENTRATION (120 h, time 5 day): 38.55 G/DL
MEAN CORPUSCULAR VOLUME (120 h, time 5 day): 64.3 fL
MONOCYTE (120 h, time 5 day): 2%
NEUTROPHIL (120 h, time 5 day): 16%
NUCLEATED RED BLOOD CELLS (120 h, time 5 day): 0.5 /100WBC
PLATELET COUNT (120 h, time 5 day): 1087.25 x10E3/uL
ALANINE AMINOTRANSFERASE (120 h, time 5 day): 38.5 u/L
ALBUMIN (120 h, time 5 day): 3.65 G/DL
ALKALINE PHOSPHATASE (120 h, time 5 day): 255.67 u/L
ASPARTATE AMINOTRANSFERASE (120 h, time 5 day): 60 u/L
BLOOD UREA NITROGEN (120 h, time 5 day): 13.75 mg/dL
CARBON DIOXIDE (120 h, time 5 day): 31.5 mmol/L
CHLORIDE (120 h, time 5 day): 101.67 MEQ/L
CHOLESTEROL (120 h, time 5 day): 80.25 mg/dL
CREATINE PHOSPHOKINASE (120 h, time 5 day): 189 u/L
CREATININE (120 h, time 5 day): 0.15 mg/dL
GLUCOSE (120 h, time 5 day): 141.25 mg/dL
LACTATE DEHYDROGENASE (120 h, time 5 day): 82.25 u/L
LIPASE (120 h, time 5 day): 8.25 u/L
PHOSPHORUS (120 h, time 5 day): 10.7 mg/dL
POTASSIUM (120 h, time 5 day): 5.87 MEQ/L
SODIUM (120 h, time 5 day): 145.27 MEQ/L
TOTAL BILIRUBIN (120 h, time 5 day): 0.13 mg/dL
TOTAL PROTEIN (120 h, time 5 day): 5.8 G/DL
URIC ACID (120 h, time 5 day): 0.57 mg/dL
